Laboratory results reported in patent US12121524B2, “DNA-PK inhibitors” (VERTEX PHARMACEUTICALS INCORPORATED, priority 2018, dated 2024).

Each compound was assayed against DNA-PK (Homo sapiens, UniProt P78527) (assay: DNA-PK inhibition assay (standard radiometric 33P-ATP kinase assay)). Conditions: 100 μM ATP, approx. 6 nM DNA-PK.
Type: biochemical
Experimental: Compounds were screened for their ability to inhibit DNA-PK kinase using a standard radiometric assay. Briefly, in this kinase assay the transfer of the terminal ^33P-phosphate in ^33P-ATP to a peptide substrate is interrogated. The assay was carried out in 384-well plates to a final volume of 50 μL per well containing approximately 6 nM DNA-PK, 50 mM HEPES (pH 7.5), 10 mM MgCl2, 25 mM NaCl, 0.01% BSA, 1 mM DTT, 10 μg/mL sheared double-stranded DNA (obtained from Sigma), 0.8 mg/mL DNA-PK peptide (Glu-Pro-Pro-Leu-Ser-Gln-Glu-Ala-Phe-Ala-Asp-Leu-Trp-Lys-Lys-Lys, obtained from American Peptide), and 100 μM ATP.
Accordingly, compounds of the invention were dissolved in DMSO to make 10 mM initial stock solutions. Serial dilutions in DMSO were then made to obtain the final solutions for the assay. A 0.75 μL aliquot of DMSO or inhibitor in DMSO was added to each well, followed by the addition of ATP substrate solution containing ^33P-ATP (obtained from Perkin Elmer). The reaction was started by the addition of DNA-PK, peptide and ds-DNA. After 45 min, the reaction was quenched with 25 μL of 5% phosphoric acid. The reaction mixture was transferred to MultiScreen HTS 384-well PH plates (obtained from Millipore), allowed to bind for one hour, and washed three times with 1% phosphoric acid. Following the addition of 50 μL of Ultima Gold™ high efficiency scintillant (obtained from Perkin Elmer), the samples were counted in a Packard TopCount NXT Microplate Scintillation and Luminescence Counter (Packard BioScience). The Ki values were calculated using Microsoft Excel Solver macros to fit the data to the kinetic model for competitive tight-binding inhibition.

Ki, < 100 nM:
CCOc1ncc(F)c(N[C@H]2CC[C@@H](Oc3cc(N4CCOCC4)cc4nccnc34)CC2)n1 [Compound 607]
c1cnc(N[C@H]2CC[C@@H](Oc3cc(N4C[C@H]5CC[C@@H](C4)O5)cc4nccnc34)CC2)nc1 [Compound 53]
COc1ccc(N[C@H]2CC[C@@H](Oc3cc(N4CCOCC4)cc4nccnc34)CC2)nn1 [Compound 260]
c1cnc(N[C@H]2CC[C@@H](Nc3cc(N4CCOCC4)cc4nonc34)CC2)nc1 [Compound 23, (cis)-N^1-(6-morpholinobenzo[c][1,2,5]oxadiazol-4-yl)-N^4-(pyrimidin-2-yl)cyclohexane-1,4-diamine]
C1=C(c2cc(O[C@H]3CC[C@@H](Nc4ncccn4)CC3)c3nccnc3c2)CCOC1 [Compound 36, N-[(cis)-4-[7-(3,6-dihydro-2H-pyran-4-yl)quinoxalin-5-yl]oxycyclohexyl]pyrimidin-2-amine]
Nc1cnc(N[C@H]2CC[C@@H](Oc3cc(N4CCOCC4)cc4nccnc34)CC2)nc1 [Compound 143]
CC(C)c1cnc(N[C@H]2CC[C@@H](Oc3cc(N4CCOCC4)cc4nccnc34)CC2)nc1 [Compound 209]
Cc1cnc2c(O[C@H]3CC[C@@H](Nc4ncccn4)CC3)cc(N3CCOCC3)cc2n1 [Compound 190]
COC(=O)c1cc(N[C@H]2CC[C@@H](Oc3cc(N4CCOCC4)cc4nccnc34)CC2)ncc1OC(C)(C)C [Compound 407]
Brc1ccc(N[C@H]2CC[C@@H](Oc3cc(N4CCOCC4)cc4nccnc34)CC2)nc1 [Compound 164]
c1cnc(N[C@H]2CC[C@@H](Nc3cc(N4CCOCC4)cc4nccnc34)CC2)nc1 [Compound 18, N^1-(7-morpholinoquinoxalin-5-yl)-N^4-(pyrimidin-2-yl)cyclohexane-1,4-diamine]
CCOc1cc(N[C@H]2CC[C@@H](Oc3cc(N4CCOCC4)cc4nccnc34)CC2)ncn1 [Compound 215]
CN1CCN(c2ccc(C(=O)N[C@H]3CC[C@@H](Oc4cc(N5CCOCC5)cc5nccnc45)CC3)cc2F)CC1 [Compound 200]
COc1nccc(N[C@H]2CC[C@@H](Oc3cc(N4CCOCC4)cc4nccnc34)CC2)n1 [Compound 268]
COc1cc(C)nc(N[C@H]2CC[C@@H](Oc3cc(N4CCOCC4)cc4nccnc34)CC2)n1 [Compound 276]
COC(=O)c1cnc(N[C@H]2CC[C@@H](Nc3cc(N4CCOCC4)cc4nccnc34)CC2)cn1 [Compound 32]
C[C@H](CO)Nc1ncnc(N[C@H]2CC[C@@H](Oc3cc(N4CCOCC4)cc4nccnc34)CC2)c1F [Compound 380]
c1ccc(N[C@H]2CC[C@@H](Nc3cc(N4CCOCC4)cc4nccnc34)CC2)nc1 [Compound 24]
FC(F)(F)c1ccc(N[C@H]2CC[C@@H](Oc3cc(N4CCOCC4)cc4nccnc34)CC2)nc1 [Compound 189]
CCCCc1cnc2cc(N3CCOCC3)cc(O[C@H]3CC[C@@H](Nc4ncccn4)CC3)c2n1 [Compound 63]
CCOCCc1cnc(N[C@H]2CC[C@@H](Oc3cc(N4CCOCC4)cc4nccnc34)CC2)nc1 [Compound 135]
N#Cc1ccnc(N[C@H]2CC[C@@H](Oc3cc(N4CCOCC4)cc4nccnc34)CC2)c1 [Compound 84]
COc1cc(N[C@H]2CC[C@@H](Oc3cc(N4CCOCC4)cc4nccnc34)CC2)ncn1 [Compound 194]
CNC(=O)c1ccc(N[C@H]2CC[C@@H](Oc3cc(N4CCOCC4)cc4nccnc34)CC2)nc1 [Compound 144]
CC(C)(O)c1cnc(N[C@H]2CC[C@@H](Oc3cc(N4CCOCC4)cc4nccnc34)CC2)nc1 [Compound 243]
CN(C)C(=O)c1cnc(N[C@H]2CC[C@@H](Oc3cc(N4CCOCC4)cc4nccnc34)CC2)cn1 [Compound 108]
Cc1ccc(N[C@H]2CC[C@@H](Oc3cc(N4CCOCC4)cc4nccnc34)CC2)nn1 [Compound 450]
CCCCc1cnc2cc(N3CCOCC3)cc(O[C@H]3CC[C@@H](Nc4ncc(Br)cn4)CC3)c2n1 [Compound 64]
CCN(CC)c1cnc(N[C@H]2CC[C@@H](Oc3cc(N4CCOCC4)cc4nccnc34)CC2)nc1 [Compound 155]
NC(=O)c1ccc(N[C@H]2CC[C@@H](Oc3cc(N4CCOCC4)cc4nccnc34)CC2)nc1 [Compound 140]
Cc1nc(N[C@H]2CC[C@@H](Oc3cc(N4CCOCC4)cc4nccnc34)CC2)cc(N2CCN(C)CC2)n1 [Compound 275]
N#Cc1ccc(N[C@H]2CC[C@@H](Oc3cc(N4CCOCC4)cc4nccnc34)CC2)nn1 [Compound 55]
CCOc1cnc(N[C@H]2CC[C@@H](Oc3cc(N4CCOCC4)cc4nccnc34)CC2)nc1 [Compound 233]
N#Cc1cc(N[C@H]2CC[C@@H](Oc3cc(N4CCOCC4)cc4nccnc34)CC2)ncn1 [Compound 234]
c1cnc(N[C@H]2CC[C@@H](Nc3cc(N4CCOCC4)cc4nccnc34)CC2)cn1 [Compound 27]
O=C(O)c1ccc(N[C@H]2CC[C@@H](Oc3cc(N4CCOCC4)cc4nccnc34)CC2)nc1 [Compound 139]
Brc1cnc(N[C@H]2CC[C@@H](Oc3cc(N4CCOCC4)cc4nccnc34)CC2)nc1 [Compound 45]
COc1ccc(N[C@H]2CC[C@@H](Oc3cc(N4CCOCC4)cc4nccnc34)CC2)nc1 [Compound 206]
COc1cncc(N[C@H]2CC[C@@H](Oc3cc(N4CCOCC4)cc4nccnc34)CC2)n1 [Compound 54]
CNC(=O)c1cnc(N[C@H]2CC[C@@H](Oc3cc(N4CCOCC4)cc4nccnc34)CC2)nc1 [Compound 71]
N#Cc1ccnc(N[C@H]2CC[C@@H](Oc3cc(N4CCOCC4)cc4nccnc34)CC2)n1 [Compound 207]
c1ncc(N[C@H]2CC[C@@H](Nc3cc(N4CCOCC4)cc4nccnc34)CC2)cn1 [Compound 30]
Clc1cc(N[C@H]2CC[C@@H](Oc3cc(N4CCOCC4)cc4nccnc34)CC2)ncn1 [Compound 39]
Cc1cc(C)nc(N[C@H]2CC[C@@H](Oc3cc(N4CCOCC4)cc4nccnc34)CC2)n1 [Compound 52]
Cc1cnc2cc(N3CCOCC3)cc(O[C@H]3CC[C@@H](Nc4ncccn4)CC3)c2n1 [Compound 191]
N#Cc1ccc(N[C@H]2CC[C@@H](Oc3cc(N4CCOCC4)cc4nccnc34)CC2)nc1 [Compound 59]
Cc1cnc(N[C@H]2CC[C@@H](Oc3cc(N4CCOCC4)cc4nccnc34)CC2)nc1 [Compound 142]
Fc1ccnc(N[C@H]2CC[C@@H](Oc3cc(N4CCOCC4)cc4nccnc34)CC2)n1 [Compound 49]
N#Cc1cnc(N[C@H]2CC[C@@H](Oc3cc(N4CCOCC4)cc4nccnc34)CC2)nc1 [Compound 44]
COC(=O)c1cccnc1N[C@H]1CC[C@@H](Oc2cc(N3CCOCC3)cc3nccnc23)CC1 [Compound 202]
c1cc(N[C@H]2CC[C@@H](Oc3cc(N4CCOCC4)cc4nccnc34)CC2)nc(C2CC2)n1 [Compound 267]
